Consider 23 compounds from patent publication US8785488B2 (Exelixis Patent Company LLC, priority 2009, dated 2014).

This experiment addresses T1, human TGR5 (h-TGR5) (Homo sapiens, UniProt Q8TDU6).
T1 construct: expressed in transfected cells
T1 sequence (Q8TDU6 1-330): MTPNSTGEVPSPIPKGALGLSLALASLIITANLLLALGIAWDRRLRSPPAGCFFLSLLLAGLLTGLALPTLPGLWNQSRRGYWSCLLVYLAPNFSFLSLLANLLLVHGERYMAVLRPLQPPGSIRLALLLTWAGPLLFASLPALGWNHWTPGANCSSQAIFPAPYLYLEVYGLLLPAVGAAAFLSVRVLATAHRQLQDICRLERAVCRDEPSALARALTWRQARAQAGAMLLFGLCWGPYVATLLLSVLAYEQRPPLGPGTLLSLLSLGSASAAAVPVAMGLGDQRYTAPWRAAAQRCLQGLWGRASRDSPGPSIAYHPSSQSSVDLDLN
The experiment in a line: TGR5/CRE-Luciferiase Assay (HEK 293 hTGR5/CRE-Luc cells). It is filed as cell-based. The procedure:
Compounds were serially diluted in DMEM containing 5% DMSO and 5 μL of compound or media alone was transferred to each well and plates were incubated for 6 hours. Following incubation, 30 μL of lysis/luciferase buffer was added to each well. The luciferase activity was then measured on the EnVision™ plate reader and the dose response data was analyzed using ActivityBase.
In the following tables, EC50 values determined according to the TGR5 cAMP Assay described herein (cAMP); EC50 values determined according to the TGR5/CRE-Luciferiase Assay described herein (CRE-Luc). […] The following compounds in Tables 1 and 2 were made by using procedures described in the above Schemes and Examples, and, where applicable, by making any necessary substitutions of known materials that one skilled in the art would ordinarily understand how to do.

[1] abbreviates: h-TGR5 CRE-Luc EC50, Table 1, read-out: CRE-Luc (EC50).

Structures are written as SMILES. Like-named read-outs stand apart in the source and are kept apart here. A value given as a limit tells only on which side of the number the result lay.

By EC50 is commonly meant the concentration needed to bring the measured effect to its halfway point. `CC(C)(c1ccc(Cl)c(Cl)c1)c1cnc(COc2ccc(-c3nn[nH]n3)cc2Cl)n1-c1ccc(F)cc1` [5-{3-chloro-4-[({5-[1-(3,4-dichlorophenyl)-1-methylethyl]-1-(4-fluorophenyl)-1H-imidazol-2-yl}methyl)oxy]phenyl}-2H-tetrazole]: the EC50 under setting [1] is 1000 to 10000 nM.

`CC(C)(c1ccc(Cl)c(Cl)c1)c1cnc(SCc2ccc(F)cc2CO)n1-c1ccc(F)cc1` [{2-[({5-[1-(3,4-dichlorophenyl)-1-methylethyl]-1-(4-fluorophenyl)-1H-imidazol-2-yl}thio)methyl]-5-fluorophenyl}methanol]: the EC50 under setting [1] is 1000 to 10000 nM.

On to `CC(C)(c1ccc(Cl)c(Cl)c1)c1cnc(S(=O)(=O)C(C)(C)c2c(F)cccc2Cl)n1-c1ccc(F)cc1` [2-{[1-(2-chloro-6-fluorophenyl)-1-methylethyl]sulfonyl}-5-[1-(3,4-dichlorophenyl)-1-methylethyl]-1-(4-fluorophenyl)-1H-imidazole], for which, under setting [1], the EC50 lay in the range of 100 to 1000 nM.

Regarding `CC(C)(c1ccc(C(F)(F)F)cc1)c1cnc(SCc2c(F)cccc2Cl)n1-c1ccc(F)cc1` [2-{[(2-chloro-6-fluorophenyl)methyl]thio}-1-(4-fluorophenyl)-5-{1-methyl-1-[4-(trifluoromethyl)phenyl]ethyl}-1H-imidazole], the EC50 under setting [1] is 100 to 1000 nM.

For the compound `CN1CCN(c2cc(CSc3ncc(C(C)(C)c4ccc(Cl)c(Cl)c4)n3-c3ccc(F)cc3)ccc2F)CC1` [1-{5-[({5-[1-(3,4-dichlorophenyl)-1-methylethyl]-1-(4-fluorophenyl)-1H-imidazol-2-yl}thio)methyl]-2-fluorophenyl}-4-methylpiperazine], the EC50 under setting [1] is 1000 to 10000 nM.

For `CC(C)(c1ccc(Cl)c(Cl)c1)c1cnc(SCc2c(F)cccc2Cl)n1-c1ccc(Cl)c(Cl)c1` [2-{[(2-chloro-6-fluorophenyl)methyl]thio)-1-(3,4-dichlorophenyl)-5-[1-(3,4-dichlorophenyl)-1-methylethyl]-1H-imidazole], under setting [1], the EC50 lay in the range of 100 to 1000 nM.

For the compound `Fc1ccc(-n2c(Cc3ccc(Cl)c(F)c3)nnc2SCc2c(F)cccc2Cl)cc1` [Example 38], under “HEK 293 hTGR5/CRE-Luc cells, 6 hours incubation, luciferase activity, Table 2, read-out: h-TGR5CRE-Luc EC50 (CRE-Luc)”, the EC50 lay within 100 to 1000 nM.

Take `COc1ccc(C(C)(C)c2cnc(C(=O)Nc3c(F)cccc3Cl)n2-c2ccc(F)cc2)cc1OC` [5-{1-[3,4-bis(methyloxy)phenyl]-1-methylethyl}-N-(2-chloro-6-fluorophenyl)-1-(4-fluorophenyl)-1H-imidazole-2-carboxamide]: under setting [1], the EC50 fell in the range of 1000 to 10000 nM.

`CC(C)(c1ccc2c(c1)OCCO2)c1cnc(SCc2ccc(F)cc2Cl)n1-c1ccc(F)cc1` [2-{[(2-chloro-4-fluorophenyl)methyl]thio}-5-[1-(2,3-dihydro-1,4-benzodioxin-6-yl)-1-methylethyl]-1-(4-fluorophenyl)-1H-imidazole]: the EC50 under setting [1] is under 100 nM.

For `CC(C)(c1ccc(Cl)c(Cl)c1)c1cnc(SCc2ccc(F)cc2Cl)n1-c1ccc(F)cc1` [2-{[(2-chloro-4-fluorophenyl)methyl]thio}-5-[1-(3,4-dichlorophenyl)-1-methylethyl]-1-(4-fluorophenyl)-1H-imidazole], the EC50 under setting [1] is 100 to 1000 nM.

For `CC(C)(c1ccc(Cl)c(Cl)c1)c1cnc(SCc2ccc(Cl)c(-c3nnn[nH]3)c2)n1-c1cccc(F)c1` [5-{2-chloro-5-[({5-[1-(3,4-dichlorophenyl)-1-methylethyl]-1-(3-fluorophenyl)-1H-imidazol-2-yl}thio)methyl]phenyl}-1H-tetrazole], the EC50 under setting [1] was in the range of 100 to 1000 nM.

`COc1ccc(C(C)(C)c2cnc(C(=O)N3CCCC3)n2-c2ccc(F)cc2)cc1OC` [5-{1-[3,4-bis(methyloxy)phenyl]-1-methylethyl}-1-(4-fluorophenyl)-2-(pyrrolidin-1-ylcarbonyl)-1H-imidazole]: the concentration for a half-maximal effect (EC50) under setting [1] is 1000 to 10000 nM.

`CC(C)(c1ccc(Cl)c(Cl)c1)c1cnc(SCc2ccc(Cl)c(C(N)=O)c2)n1-c1ccc(F)cc1` [2-chloro-5-[({5-[1-(3,4-dichlorophenyl)-1-methylethyl]-1-(4-fluorophenyl)-1H-imidazol-2-yl}thio)methyl]benzamide]: the EC50 under setting [1] is under 100 nM.

`CC(c1ncc(C(C)(C)c2ccc(Cl)c(Cl)c2)n1-c1ccc(F)cc1)S(=O)(=O)c1ccc(F)cc1Cl` (centres unmarked) [2-{1-[(2-chloro-4-fluorophenyl)sulfonyl]ethyl}-5-[1-(3,4-dichlorophenyl)-1-methylethyl]-1-(4-fluorophenyl)-1H-imidazole]: the EC50 under setting [1] fell in the range of 1000 to 10000 nM.

Take `COc1ccc(C(C)(C)c2cnc(CNCc3c(F)cccc3Cl)n2-c2ccc(F)cc2)cc1OC` [1-[5-{1-[3,4-bis(methyloxy)phenyl]-1-methylethyl}-1-(4-fluorophenyl)-1H-imidazol-2-yl]-N-[(2-chloro-6-fluorophenyl)methyl]methanamine]: the EC50 under setting [1] was under 100 nM.

`CC(C)(O)COc1cc(CSc2ncc(C(C)(C)c3ccc(Cl)c(Cl)c3)n2-c2ccc(F)cc2)ccc1F` [1-({5-[({5-[1-(3,4-dichlorophenyl)-1-methylethyl]-1-(4-fluorophenyl)-1H-imidazol-2-yl}thio)methyl]-2-fluorophenyl}oxy)-2-methylpropan-2-ol]: the EC50 under setting [1] was in the range of 100 to 1000 nM.

As to `CC(Oc1ccc(Cl)c(Cl)c1)c1ncc(C(C)(C)c2ccc(Cl)c(Cl)c2)n1-c1ccc(F)cc1` (centres unmarked) [5-[1-(3,4-dichlorophenyl)-1-methylethyl]-2-{1-[(3,4-dichlorophenyl)oxy]ethyl}-1-(4-fluorophenyl)-1H-imidazole], under setting [1], the 50% effective concentration (EC50) fell in the range of 1000 to 10000 nM.

With `CC(C)(c1ccc(OCCO)cc1)c1cnc(SCc2c(F)cccc2Cl)n1-c1ccc(F)cc1` [2-[(4-{1-[2-{[(2-chloro-6-fluorophenyl)methyl]thio}-1-(4-fluorophenyl)-1H-imidazol-5-yl]-1-methylethyl}phenyl)oxy]ethanol], under setting [1], the concentration giving a half-maximal response (EC50) is 100 to 1000 nM.

Take `CC(C)(c1ccc(Cl)c(Cl)c1)c1cnc(SCC2CCN(c3nnn[nH]3)CC2)n1-c1ccc(F)c(F)c1` [4-[({5-[1-(3,4-dichlorophenyl)-1-methylethyl]-1-(3,4-difluorophenyl)-1H-imidazol-2-yl}thio)methyl]-1-(1H-tetrazol-5-yl)piperidine]: under setting [1], the EC50 was under 100 nM.

For `CC(C)(c1ccc(Cl)c(Cl)c1)c1cnc(CCc2c(F)cc(C(=O)O)cc2Cl)n1-c1ccc(F)cc1` [3-chloro-4-(2-{5-[1-(3,4-dichlorophenyl)-1-methylethyl]-1-(4-fluorophenyl)-1H-imidazol-2-yl}ethyl)-5-fluorobenzoic acid], the EC50 under setting [1] lay within 100 to 1000 nM.

With `CC(C)(C)OC(=O)N1CCC(CSc2ncc(C(C)(C)c3ccc(F)c(F)c3)n2-c2ccc(F)cc2)CC1` [1,1-dimethylethyl 4-[({5-[1-(3,4-difluorophenyl)-1-methylethyl]-1-(4-fluorophenyl)-1H-imidazol-2-yl}thio)methyl]piperidine-1-carboxylate], under setting [1], the EC50 was 100 to 1000 nM.

On to `CC(C)(c1ccc(Cl)c(Cl)c1)c1cnc(SCc2ccc(C(=N)N)c(Cl)c2)n1-c1ccc(F)cc1` [2-chloro-4-[({5-[1-(3,4-dichlorophenyl)-1-methylethyl]-1-(4-fluorophenyl)-1H-imidazol-2-yl}thio)methyl]benzenecarboximidamide], for which, under setting [1], the EC50 was 1000 to 10000 nM.

Take `CC(C)(c1ccc(Cl)c(Cl)c1)c1cnc(S(=O)(=O)Cc2ccc(F)cc2Cl)n1-c1ccc(F)cc1` [2-{[(2-chloro-4-fluorophenyl)methyl]sulfonyl}-5-[1-(3,4-dichlorophenyl)-1-methylethyl]-1-(4-fluorophenyl)-1H-imidazole]: the EC50 under setting [1] is 1000 to 10000 nM.
